Source: patent US11072626B2, “Small molecule inhibitors of Galectin-3” (BRISTOL-MYERS SQUIBB COMPANY, priority 2017, dated 2021)

biological target: His-tagged recombinant human Gal-3 (hGal-3) (Homo sapiens (Human), UniProt P17931); test: Gal-3 HTRF assay (hGal-3 / B-ASF); assay type: binding; conditions: 15 nM hGal-3, 15 nM B-ASF, table after Example 20, read-out: hGal3 IC50
Method: ASSAY BUFFER Composition: 25 mM HEPES, 100 mM NaCl, 0.005% Tween 20, 0.05% BSA prepared in sterile water (all reagents from Sigma)
Positive Control: 100% DMSO (1 μl)+His-tagged hGal-3 (20 μL)+B-ASF (20 μl)+Anti-His Terbium Antibody (5 μl)+Strep d2 Antibody (5 μl).
Negative Control: 100% DMSO (1 μl)+His-tagged hGal-3 (20μL)+Anti His Terbium Antibody (5 μl)+Strep d2 Aantibody (5 μl).
PROTOCOL: The Gal-3 assays were performed in 384 white Opti plates in three replicates at room temperature with gentle shaking at 250-300 rpm From the original stocks, […] working stock concentrations of His-tagged recombinant human Gal-3 (hGal-3) and that of B-ASF were prepared. From the working stock, 20 μl of hGal-3 (15 nM) and 20 μl B-ASF (15 nM) were added to the plates. In Negative Control, only hGal-3 was added. A concentration range of 50× working stocks were prepared for the compounds in 100% DMSO. Aliquots of 1 uL of the compounds were added to the wells and pre-incubated with 20 μl hGal-3 per well for 30 minutes Then 20 μl B-ASF were added and incubated for another 1 hour. To detect the signal, 5 μ(final conc. of 1.0 nM) terbium labelled Anti-His antibody was added and incubated for 30 min followed by adding 5 μ(final conc. of 20 nM) Streptavidin d2 and incubation for another 1 hour. The assay signal was detected using HTRF screen protocol (Excitation wavelength=340 nm, emission wavelength=615 nm/665 nm) on Envision 2104 Multilabel Reader. Data analysed using Toolset and Curve Master. Results are reported in the experimental section (IC50 in μM).

Chain of His-tagged recombinant human Gal-3 (hGal-3) (P17931 whole entry): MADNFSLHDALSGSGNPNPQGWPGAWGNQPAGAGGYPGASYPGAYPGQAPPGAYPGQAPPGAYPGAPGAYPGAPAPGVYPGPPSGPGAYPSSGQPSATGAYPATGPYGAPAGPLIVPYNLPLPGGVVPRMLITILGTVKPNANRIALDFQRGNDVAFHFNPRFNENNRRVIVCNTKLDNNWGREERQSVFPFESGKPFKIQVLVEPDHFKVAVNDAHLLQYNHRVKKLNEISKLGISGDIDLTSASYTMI

| IC50 [µM] | Compound |
| --- | --- |
| 0.225 | O=C(CO[C@@H]1[C@@H](n2cc(-c3cc(F)c(F)c(F)c3)nn2)[C@@H](O)[C@@H](CO)O[C@@H]1Sc1ccc(Cl)c(Cl)c1)N1CCCCC1 [Example 21] |
| 0.043 | O=C(CO[C@@H]1[C@@H](n2cc(-c3cc(F)c(F)c(F)c3)nn2)[C@@H](O)[C@@H](CO)O[C@@H]1Sc1ccc(Cl)c(Cl)c1)N1CCS(=O)(=O)CC1 [Example 22, 2-(((2R,3R,4S,5R,6R)-2-((3,4-dichlorophenyl)thio)-5-hydroxy-6-(hydroxymethyl)-4-(4-(3,4,5-trifluorophenyl)-1H-1,2,3-triazol-1-yl)tetrahydro-2H-pyran-3-yl)oxy)-1-(1,1-dioxidothiomorpholino)ethan-1-one] |
| 0.06 | O=C(CO[C@@H]1[C@@H](n2cc(-c3cc(F)c(F)c(F)c3)nn2)[C@@H](O)[C@@H](CO)O[C@@H]1Sc1ccc(Cl)c(Cl)c1)N1CCC[C@@H](O)C1 [Example 23] |
| 0.15 | O=C(CO[C@@H]1[C@@H](n2cc(-c3cc(F)c(F)c(F)c3)nn2)[C@@H](O)[C@@H](CO)O[C@@H]1Sc1ccc(Cl)c(Cl)c1)N1CCCC(F)(F)C1 [Example 24] |
| 0.076 | O=C(CO[C@@H]1[C@@H](n2cc(-c3cc(F)c(F)c(F)c3)nn2)[C@@H](O)[C@@H](CO)O[C@@H]1Sc1ccc(Cl)c(Cl)c1)N1CCOCC1 [Example 25, 2-(((2R,3R,4S,5R,6R)-2-((3,4-dichlorophenyl)thio)-5-hydroxy-6-(hydroxymethyl)-4-(4-(3,4,5-trifluorophenyl)-1H-1,2,3-triazol-1-yl)tetrahydro-2H-pyran-3-yl)oxy)-1-morpholinoethan-1-one] |
| 0.086 | O=C1CN(C(=O)CO[C@@H]2[C@@H](n3cc(-c4cc(F)c(F)c(F)c4)nn3)[C@@H](O)[C@@H](CO)O[C@@H]2Sc2ccc(Cl)c(Cl)c2)CCN1 [Example 26] |
| 0.07 | O=C(CO[C@@H]1[C@@H](n2cc(-c3cc(F)c(F)c(F)c3)nn2)[C@@H](O)[C@@H](CO)O[C@@H]1Sc1ccc(Cl)c(Cl)c1)N1CC[C@@H](O)C1 [Example 27] |
| 0.048 | O=C(CO[C@@H]1[C@@H](n2cc(-c3cc(F)c(F)c(F)c3)nn2)[C@@H](O)[C@@H](CO)O[C@@H]1Sc1ccc(Cl)c(Cl)c1)N1CC[C@H](O)C1 [Example 28] |
| 0.072 | O=C(CO[C@@H]1[C@@H](n2cc(-c3cc(F)c(F)c(F)c3)nn2)[C@@H](O)[C@@H](CO)O[C@@H]1Sc1ccc(Cl)c(Cl)c1)N1CCC[C@H]1CO [Example 29] |
| 0.8 | CC(=O)NC1CN(C(=O)CO[C@@H]2[C@@H](n3cc(-c4cc(F)c(F)c(F)c4)nn3)[C@@H](O)[C@@H](CO)O[C@@H]2Sc2ccc(Cl)c(Cl)c2)C1 [Example 30] |
| 0.09 | O=C(CO[C@@H]1[C@@H](n2cc(-c3cc(F)c(F)c(F)c3)nn2)[C@@H](O)[C@@H](CO)O[C@@H]1Sc1ccc(Cl)c(Cl)c1)N1CC(O)C1 [Example 31] |
| 0.7 | COCCN(C)C(=O)CO[C@@H]1[C@@H](n2cc(-c3cc(F)c(F)c(F)c3)nn2)[C@@H](O)[C@@H](CO)O[C@@H]1Sc1ccc(Cl)c(Cl)c1 [Example 32] |
| 0.06 | O=C(CO[C@@H]1[C@@H](n2cc(-c3cc(F)c(F)c(F)c3)nn2)[C@@H](O)[C@@H](CO)O[C@@H]1Sc1ccc(Cl)c(Cl)c1)N1CCC[C@H](O)C1 [Example 33, 2-(((2R,3R,4S,5R,6R)-2-((3,4-dichlorophenyl)thio)-5-hydroxy-6-(hydroxymethyl)-4-(4-(3,4,5-trifluorophenyl)-1H-1,2,3-triazol-1-yl)tetrahydro-2H-pyran-3-yl)oxy)-1-((S)-3-hydroxypiperidin-1-yl)ethan-1-one] |
| 0.66 | O=C(CO[C@@H]1[C@@H](n2cc(-c3cc(F)c(F)c(F)c3)nn2)[C@@H](O)[C@@H](CO)O[C@@H]1Sc1ccc(Cl)c(Cl)c1)NC1CC2(CC(O)C2)C1 (stereo partly shown) [Example 34] |

same assay, conditions: 15 nM hGal-3, 15 nM B-ASF, three replicates, room temperature, read-out: hGal3 IC50

| IC50 [µM] | Compound |
| --- | --- |
| 0.19 | CCOC(=O)CO[C@@H]1[C@@H](n2cc(-c3cc(F)c(F)c(F)c3)nn2)[C@@H](O)[C@@H](CO)O[C@@H]1S(=O)(=O)c1ccc(Cl)c(Cl)c1 [Example 17, ethyl 2-(((2R,3R,4S,5R,6R)-2-((3,4-dichlorophenyl)sulfonyl)-5-hydroxy-6-(hydroxymethyl)-4-(4-(3,4,5-trifluorophenyl)-1H-1,2,3-triazol-1-yl)tetrahydro-2H-pyran-3-yl)oxy)acetate] |
| 0.06 | O=C(O)CO[C@@H]1[C@@H](n2cc(-c3cc(F)c(F)c(F)c3)nn2)[C@@H](O)[C@@H](CO)O[C@@H]1S(=O)(=O)c1ccc(Cl)c(Cl)c1 [Example 19, 2-(((2R,3R,4S,5R,6R)-2-((3,4-dichlorophenyl)sulfonyl)-5-hydroxy-6-(hydroxymethyl)-4-(4-(3,4,5-trifluorophenyl)-1H-1,2,3-triazol-1-yl)tetrahydro-2H-pyran-3-yl)oxy)acetic acid] |
| 0.04 | O=C(CO[C@@H]1[C@@H](n2cc(-c3cc(F)c(F)c(F)c3)nn2)[C@@H](O)[C@@H](CO)O[C@@H]1Sc1ccc(Cl)c(Cl)c1)N1CCC(O)CC1 [Example 20, 2-(((2R,3R,4S,5R,6R)-2-((3,4-dichlorophenyl)thio)-5-hydroxy-6-(hydroxymethyl)-4-(4-(3,4,5-trifluorophenyl)-1H-1,2,3-triazol-1-yl)tetrahydro-2H-pyran-3-yl)oxy)-1-(4-hydroxypiperidin-1-yl)ethan-1-one] |
| 0.05 | O=C(CO[C@@H]1[C@@H](n2cc(-c3cc(F)c(F)c(F)c3)nn2)[C@@H](O)[C@@H](CO)O[C@@H]1[S@+]([O-])c1ccc(Cl)c(Cl)c1)N1CCS(=O)(=O)CC1 [Example 35, 2-(((2R,3R,4S,5R,6R)-2-((R)-(3,4-dichlorophenyl)sulfinyl)-5-hydroxy-6-(hydroxymethyl)-4-(4-(3,4,5-trifluorophenyl)-1H-1,2,3-triazol-1-yl)tetrahydro-2H-pyran-3-yl)oxy)-1-(1,1-dioxidothiomorpholino)ethan-1-one] |
| 0.07 | O=C(CO[C@@H]1[C@@H](n2cc(-c3cc(F)c(F)c(F)c3)nn2)[C@@H](O)[C@@H](CO)O[C@@H]1[S@@+]([O-])c1ccc(Cl)c(Cl)c1)N1CCC[C@H](O)C1 [Example 36, 2-(((2R,3R,4S,5R,6R)-2-((S)-(3,4-dichlorophenyl)sulfinyl)-5-hydroxy-6-(hydroxymethyl)-4-(4-(3,4,5-trifluorophenyl)-1H-1,2,3-triazol-1-yl)tetrahydro-2H-pyran-3-yl)oxy)-1-((S)-3-hydroxypiperidin-1-yl)ethan-1-one] |
| 0.08 | O=C(CO[C@@H]1[C@@H](n2cc(-c3cc(F)c(F)c(F)c3)nn2)[C@@H](O)[C@@H](CO)O[C@@H]1[S@@+]([O-])c1ccc(Cl)c(Cl)c1)N1CCOCC1 [Example 37, 2-(((2R,3R,4S,5R,6R)-2-((S)-(3,4-dichlorophenyl)sulfinyl)-5-hydroxy-6-(hydroxymethyl)-4-(4-(3,4,5-trifluorophenyl)-1H-1,2,3-triazol-1-yl)tetrahydro-2H-pyran-3-yl)oxy)-1-morpholinoethan-1-one] |
| 0.68 | O=C(O)/C=C\O[C@@H]1[C@@H](n2cc(-c3cc(F)c(F)c(F)c3)nn2)[C@@H](O)[C@@H](CO)O[C@@H]1Sc1ccc(Cl)c(Cl)c1 [Example 40 (cis-isomer), (Z)-3-(((2R,3R,4S,5R,6R)-2-((3,4-dichlorophenyl)thio)-5-hydroxy-6-(hydroxymethyl)-4-(4-(3,4,5-trifluorophenyl)-1H-1,2,3-triazol-1-yl)tetrahydro-2H-pyran-3-yl)oxy)acrylic acid] |
| 0.06 | O=C(O)/C=C/O[C@@H]1[C@@H](n2cc(-c3cc(F)c(F)c(F)c3)nn2)[C@@H](O)[C@@H](CO)O[C@@H]1Sc1ccc(Cl)c(Cl)c1 [Example 40 (trans-isomer), (E)-3-(((2R,3R,4S,5R,6R)-2-((3,4-dichlorophenyl)thio)-5-hydroxy-6-(hydroxymethyl)-4-(4-(3,4,5-trifluorophenyl)-1H-1,2,3-triazol-1-yl)tetrahydro-2H-pyran-3-yl)oxy)acrylic acid] |
| 2.74 | O=C(O)/C=C/O[C@@H]1[C@@H](n2cc(C3CC3)nn2)[C@@H](O)[C@@H](CO)O[C@@H]1Sc1ccc(Cl)c(Cl)c1 [Example 41, (E)-3-(((2R,3R,4S,5R,6R)-4-(4-cyclopropyl-1H-1,2,3-triazol-1-yl)-2-((3,4-dichlorophenyl)thio)-5-hydroxy-6-(hydroxymethyl)tetrahydro-2H-pyran-3-yl)oxy)acrylic acid] |
| 5 | CO[C@@H]1[C@@H](n2cc(C(=O)O)nn2)[C@@H](O)[C@@H](CO)O[C@@H]1Sc1ccc(Cl)c(Cl)c1 [Example 42, 1-((2R,3R,4S,5R,6R)-2-((3,4-dichlorophenyl)thio)-5-hydroxy-6-(hydroxymethyl)-3-methoxytetrahydro-2H-pyran-4-yl)-1H-1,2,3-triazole-4-carboxylic acid] |
| 2.9 | CO[C@@H]1[C@@H](n2cc(C(=O)NC3CC3)nn2)[C@@H](O)[C@@H](CO)O[C@@H]1Sc1ccc(Cl)c(Cl)c1 [Example 43, N-cyclopropyl-1-((2R,3R,4S,5R,6R)-2-((3,4-dichlorophenyl)thio)-5-hydroxy-6-(hydroxymethyl)-3-methoxytetrahydro-2H-pyran-4-yl)-1H-1,2,3-triazole-4-carboxamide] |
